Values of other authors in publication PMC4512239 (Clinical cancer research : an official journal of the …, 2015).

Details: allosteric m-TOR inhibitors; cited from earlier work

half-life, ≥ 24 h:
CO[C@H]1C[C@@H]2CC[C@@H](C)[C@@](O)(O2)C(=O)C(=O)N2CCCC[C@H]2C(=O)O[C@H]([C@H](C)C[C@@H]2CC[C@@H](OCCO)[C@H](OC)C2)CC(=O)[C@H](C)/C=C(\C)[C@@H](O)[C@@H](OC)C(=O)[C@H](C)C[C@H](C)/C=C/C=C/C=C/1C [everolimus]
CO[C@H]1C[C@@H]2CC[C@@H](C)[C@@](O)(O2)C(=O)C(=O)N2CCCC[C@H]2C(=O)O[C@H]([C@H](C)C[C@@H]2CC[C@@H](OP(C)(C)=O)[C@H](OC)C2)CC(=O)[C@H](C)/C=C(\C)[C@@H](O)[C@@H](OC)C(=O)[C@H](C)C[C@H](C)/C=C/C=C/C=C/1C [ridaforolimus]
CO[C@H]1C[C@@H]2CC[C@@H](C)[C@@](O)(O2)C(=O)C(=O)N2CCCC[C@H]2C(=O)O[C@H]([C@H](C)C[C@@H]2CC[C@@H](OC(=O)C(C)(CO)CO)[C@H](OC)C2)CC(=O)[C@H](C)/C=C(\C)[C@@H](O)[C@@H](OC)C(=O)[C@H](C)C[C@H](C)/C=C/C=C/C=C/1C [temsirolimus]
